Series [1] has as its system plasma cysteine, plasma glutathione and red blood cell glutathione. Particulars: in vivo; cited from earlier work.
The next series has as its system myocardial glutathione. To be noted: subsequent to experimental ischemia and reperfusion; cited from earlier work.
Series [2] concerns left median and ulnar nerves. Kind of series: Nerve conduction studies on Subject 1 in the clinical trial of PABA with antioxidant and vitamin co-agents. It counts as in vivo, human. To be noted: for Latency: distal latency; for Latency / Amplitude / Conduction velocity: May 6, 1992 study; for Change in amplitude / Change in conduction velocity / Change in distal latency: May 6, 1992 vs Jun. 20, 1988. The procedure: Subject 1 is an individual and having hereditary motor and sensory neuropathy. The subject's family has the X-linked subvariety of the disease. All of the composition ingredients of this example were administered via the oral route. On Sep. 1, 1990 Subject 1 began taking three 100 mg tablets of p-aminobenzoic acid per day. This daily dosage consisted of single 100 mg tablets (Schiff Products, Moonachie, N.J.) taken one at a time approximately every eight hours. Also initiated at this time and taken three times per day: DL-methionine, 500 mg and vitamin E (as mix tocopherols in oil-based capsules), 200 I.U. Their weight at the time was approximately 165 lbs. The daily dosage times were approximately 8:00 AM, 4:00 PM and 11:30 PM. This original low dosage of PABA was selected in part as a check to ensure no adverse immunologic reaction. Symptoms of allergic reaction such as bronchial constriction or skin rash were not observed. […] On Oct. 1, 1990 Subject 1 began taking a total of 600 mg PABA per day by doubling the original dosage noted above; 200 mg taken three times per day. Also taken with PABA: DL-methionine, 500 mg and vitamin E, 200 I.U. On Jan. 1, 1991 Subject 1 began taking three 550 mg capsules of PABA (Solgar Co., Lynbrook, N.Y.) per day, one approximately every eight hours. DL-Methionine use was doubled to 1,000 mg every eight hours. Likewise, vitamin E deosage was doubled to 400 I.U. every eight hours. In addition, the following dietary supplements were initiated and taken once per day (4:00 PM): On Feb. 24, 1991 Subject 1 began taking six 550 mg capsules of PABA per day, two every eight hours plus the dietary supplement combination initiated January 1st. DL-Methionine and vitamin E dosage were continued as initiated January 1st; 3,000 mg and 1,200 I.U. total daily, respectively. Dosage of additional dietary supplements was also continued as initiated January 1st, with the addition of 100 mg vitamin B1 per day. Also, selenium daily dosage was reduced to 12 ug per day. As of May 1, 1991 consumption of pantothenic acid and vitamin B1 were tripled to 250 mg 3× daily and 100 mg 3× daily, respectively, taken with PABA. Also initiated now, vitamin B6, 100 mg taken 3× daily with PABA. As of Jul. 1, 1991 the methionine product was switched to “L-Methionine 500 mg Caps with Vitamin B6” (Nature's Plus, Farmingdale, N.Y.). Each capsule has the free form of the L-amino acid and 50 mg vitamin B6. This dose of vitamin B6 is in addition to the 300 mg/day noted in the preceding paragraph. As of Jul. 26, 1991 the vitamin E product was switched to “Natural Dry All E, 400 I.U.” (Schiff Products, Moonachie, N.J.). One of these dry powder capsules is taken 3× daily with PABA, as before. As of Aug. 7, 1991 daily doses of PABA, methionine and vitamin E were increased by 50%. Thus starting at this time, three 550 mg PABA capsules, three 500 mg methionine capsules, one 400 I.U. dry vitamin E and a 200 I.U. dry vitamin E capsule were taken at a time, three times per day. Daily totals of these agents were now: PABA, 4.95 gm; methionine, 4.5 gm; and vitamin E, 1,800 I.U. Other agents were taken as before. As of Nov. 22, 1991 the daily dose of PABA was increased. Thus starting at this time, four 550 mg PABA capsules were taken at a time, three times per day. Daily total of PABA was now 6.6 gm. Other agents were taken as before. On Jun. 20, 1988 Subject 1 participated in a nerve conduction research study at the National Institutes of Health. Nerve conduction data was recorded from the left median and ulnar nerves, which included conduction velocity, amplitude and distal latency for each nerve. On May 6, 1992 Subject 1 was tested again at the office of a neurologist in Bryn Mawr, Pa. This experimental drug trial involved a step-by-step increase in dosages over an extended period. […]

The nature of series [3]: Check for adverse immunologic or clinical reaction to low-dose oral PABA in Subject 1. It counts as in vivo, human. Particulars: oral PABA 100 mg three times per day with DL-methionine 500 mg and vitamin E 200 I.U. Here is the method:
Subject 1 is an individual and having hereditary motor and sensory neuropathy. The subject's family has the X-linked subvariety of the disease. All of the composition ingredients of this example were administered via the oral route.
On Sep. 1, 1990 Subject 1 began taking three 100 mg tablets of p-aminobenzoic acid per day. This daily dosage consisted of single 100 mg tablets (Schiff Products, Moonachie, N.J.) taken one at a time approximately every eight hours. Also initiated at this time and taken three times per day: DL-methionine, 500 mg and vitamin E (as mix tocopherols in oil-based capsules), 200 I.U. Their weight at the time was approximately 165 lbs. The daily dosage times were approximately 8:00 AM, 4:00 PM and 11:30 PM. This original low dosage of PABA was selected in part as a check to ensure no adverse immunologic reaction. Symptoms of allergic reaction such as bronchial constriction or skin rash were not observed.

Structures are written as SMILES.

With `CC(=O)N[C@@H](CS)C(=O)O` [N-acetyl-cysteine], in series [1], the “Levels of plasma cysteine, plasma glutathione and red blood cell glutathione” value was “increase”. Further, the “Increase in myocardial glutathione” value in the series with myocardial glutathione is 100 fold.
Consider `Nc1ccc(C(=O)O)cc1` [PABA, 4-Aminobenzoic acid], for which the Latency in series [2] (left median nerve, after PABA up to 6.6 gm/day with co-agents, pre-treatment Jun. 20, 1988 value 12.4) amounted to 13.1 ms; in series [2] (left ulnar nerve, after PABA up to 6.6 gm/day with co-agents, pre-treatment Jun. 20, 1988 value 13.8) it was 13.1 ms. The Amplitude in series [2] (left median nerve, after PABA up to 6.6 gm/day with co-agents, pre-treatment Jun. 20, 1988 value 0.4) stood at 0.4 mV; in series [2] (left ulnar nerve, after PABA up to 6.6 gm/day with co-agents, pre-treatment Jun. 20, 1988 value 1.3), 2.4 mV. The Conduction velocity in series [2] (left median nerve, after oral PABA raised stepwise from 300 mg/day to 6.6 gm/day (Sep 1990-May 1992) with methionine, vitamin E and vitamin co-agents, Subject 1, X-linked HMSN, pre-treatment Jun. 20, 1988 value 28) came to 28.2 meters/sec; in series [2] (left ulnar nerve, after PABA up to 6.6 gm/day with co-agents, pre-treatment Jun. 20, 1988 value 29) it was 31.8 meters/sec. The Change in amplitude entry was “remained unchanged” in series [2] (left median nerve) and “improved by eighty-five percent” in series [2] (left ulnar nerve). Besides, the “Change in conduction velocity” value in series [2] (left median nerve) is on record as “remained unchanged”; in series [2] (left ulnar nerve) it was “improved by ten percent”. The “Change in distal latency” value in series [2] (left median nerve) was “increased (that is, worsened) by six percent”; in series [2] (left ulnar nerve), “improved by five percent”. The “Clinical reaction to PABA” value in series [3] is on record as “no clinical reaction”. Moreover, the “Symptoms of allergic reaction such as bronchial constriction or skin rash” value in series [3] is “not observed”.

The values above are taken from US6746678B1, “Method of treating neurological diseases and etiologically related symptomology using carbonyl trapping agents in combination with medicaments” (priority 1991, dated 2004).
